In ChEMBL document CHEMBL4507317, “Data for DCP probe BAY-899” (2021):

Experiments:
[1] = biological target: NT-3 growth factor receptor (Homo sapiens) (UniProt Q16288); conditions: Compound concentration 1000.0 nM
[2] = biological target: Serine/threonine-protein kinase MRCK alpha (Homo sapiens) (UniProt Q5VT25); conditions: Compound concentration 1000.0 nM
[3] = biological target: Serine/threonine-protein kinase SBK1 (Homo sapiens) (UniProt Q52WX2); conditions: Compound concentration 1000.0 nM
[4] = biological target: Casein kinase I isoform alpha (Homo sapiens) (UniProt P48729); conditions: Compound concentration 1000.0 nM
[5] = biological target: Serine/threonine-protein kinase pim-1 (Homo sapiens) (UniProt P11309); conditions: Compound concentration 1000.0 nM
[6] = biological target: Peripheral plasma membrane protein CASK (Homo sapiens) (UniProt O14936); conditions: Compound concentration 1000.0 nM
[7] = system: Phosphatidylinositol 4,5-bisphosphate 3-kinase catalytic subunit alpha isoform (Homo sapiens), P42336 [H1047L]; conditions: Compound concentration 1000.0 nM
[8] = biological target: Mitotic checkpoint serine/threonine-protein kinase BUB1 (Homo sapiens) (UniProt O43683); conditions: Compound concentration 1000.0 nM
[9] = biological target: Proto-oncogene tyrosine-protein kinase ROS (Homo sapiens) (UniProt P08922); conditions: Compound concentration 1000.0 nM
[10] = biological target: Serine/threonine-protein kinase Sgk2 (Homo sapiens) (UniProt Q9HBY8); conditions: Compound concentration 1000.0 nM
[11] = biological target: Ribosomal protein S6 kinase alpha-6 (Homo sapiens) (UniProt Q9UK32); conditions: Compound concentration 1000.0 nM
[12] = biological target: Dual specificity tyrosine-phosphorylation-regulated kinase 2 (Homo sapiens) (UniProt Q92630); conditions: Compound concentration 1000.0 nM
[13] = biological target: Dual specificity mitogen-activated protein kinase kinase 7 (Homo sapiens) (UniProt O14733); conditions: Compound concentration 1000.0 nM
Sequence of Dual specificity mitogen-activated protein kinase kinase 7 (Homo sapiens) (O14733 whole entry): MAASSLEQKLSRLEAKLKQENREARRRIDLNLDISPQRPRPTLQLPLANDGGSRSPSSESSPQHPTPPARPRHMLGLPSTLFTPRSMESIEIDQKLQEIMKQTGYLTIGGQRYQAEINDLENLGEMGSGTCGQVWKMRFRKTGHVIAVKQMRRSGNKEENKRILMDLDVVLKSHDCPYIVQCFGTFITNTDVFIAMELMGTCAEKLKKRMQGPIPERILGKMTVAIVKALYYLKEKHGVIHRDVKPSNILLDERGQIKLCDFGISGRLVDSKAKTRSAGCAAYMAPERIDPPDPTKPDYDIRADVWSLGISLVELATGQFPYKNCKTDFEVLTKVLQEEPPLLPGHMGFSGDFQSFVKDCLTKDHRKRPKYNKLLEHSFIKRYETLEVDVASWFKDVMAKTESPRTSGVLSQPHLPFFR

[14] = biological target: Inhibitor of nuclear factor kappa-B kinase subunit beta (Homo sapiens) (UniProt O14920); conditions: Compound concentration 1000.0 nM
[15] = biological target: Protein kinase C eta type (Homo sapiens) (UniProt P24723); conditions: Compound concentration 1000.0 nM
[16] = biological target: Ankyrin repeat and protein kinase domain-containing protein 1 (Homo sapiens) (UniProt Q8NFD2); conditions: Compound concentration 1000.0 nM
[17] = biological target: Discoidin domain-containing receptor 2 (Homo sapiens) (UniProt Q16832); conditions: Compound concentration 1000.0 nM
[18] = system: Phosphatidylinositol 4,5-bisphosphate 3-kinase catalytic subunit alpha isoform (Homo sapiens), P42336 [E545K]; conditions: Compound concentration 1000.0 nM
[19] = biological target: Mitogen-activated protein kinase kinase kinase 6 (Homo sapiens) (UniProt O95382); conditions: Compound concentration 1000.0 nM
[20] = biological target: Serine/threonine-protein kinase 24 (Homo sapiens) (UniProt Q9Y6E0); conditions: Compound concentration 1000.0 nM
[21] = biological target: Phosphatidylinositol 5-phosphate 4-kinase type-2 beta (Homo sapiens) (UniProt P78356); conditions: Compound concentration 1000.0 nM
[22] = biological target: cAMP-dependent protein kinase catalytic subunit beta (Homo sapiens) (UniProt P22694); conditions: Compound concentration 1000.0 nM
[23] = biological target: GABA-A receptor; anion channel (Rattus norvegicus) (UniProt O09028+P15431+P18506+P18508+P19969+P20236+P23574+P23576+P28471+P28473+P30191+P62813+P63079+P63138+Q91ZM7+Q9ES14); conditions: Compound concentration 10.0 uM
[24] = biological target: 5-hydroxytryptamine receptor 2B (Homo sapiens, UniProt P41595); conditions: Compound concentration 10.0 uM
Sequence of 5-hydroxytryptamine receptor 2B (P41595 whole entry): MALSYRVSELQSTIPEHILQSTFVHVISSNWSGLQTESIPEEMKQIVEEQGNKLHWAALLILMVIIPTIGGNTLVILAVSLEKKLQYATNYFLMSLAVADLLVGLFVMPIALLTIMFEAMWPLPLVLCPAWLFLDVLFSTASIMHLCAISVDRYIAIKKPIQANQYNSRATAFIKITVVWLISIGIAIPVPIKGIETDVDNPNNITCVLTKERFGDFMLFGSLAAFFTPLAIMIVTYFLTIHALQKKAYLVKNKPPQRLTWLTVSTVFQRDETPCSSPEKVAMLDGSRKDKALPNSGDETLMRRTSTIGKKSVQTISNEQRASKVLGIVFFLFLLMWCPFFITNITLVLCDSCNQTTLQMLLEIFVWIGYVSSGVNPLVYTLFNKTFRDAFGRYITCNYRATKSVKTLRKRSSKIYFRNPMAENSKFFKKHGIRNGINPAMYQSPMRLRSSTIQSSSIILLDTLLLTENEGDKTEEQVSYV

[25] = biological target: Dual specificity testis-specific protein kinase 1 (Homo sapiens) (UniProt Q15569); conditions: Compound concentration 1000.0 nM
[26] = biological target: Serine/threonine-protein kinase RIO1 (Homo sapiens) (UniProt Q9BRS2); conditions: Compound concentration 1000.0 nM
Sequence of Serine/threonine-protein kinase RIO1 (Homo sapiens) (Q9BRS2 whole entry, the tested form may be a part): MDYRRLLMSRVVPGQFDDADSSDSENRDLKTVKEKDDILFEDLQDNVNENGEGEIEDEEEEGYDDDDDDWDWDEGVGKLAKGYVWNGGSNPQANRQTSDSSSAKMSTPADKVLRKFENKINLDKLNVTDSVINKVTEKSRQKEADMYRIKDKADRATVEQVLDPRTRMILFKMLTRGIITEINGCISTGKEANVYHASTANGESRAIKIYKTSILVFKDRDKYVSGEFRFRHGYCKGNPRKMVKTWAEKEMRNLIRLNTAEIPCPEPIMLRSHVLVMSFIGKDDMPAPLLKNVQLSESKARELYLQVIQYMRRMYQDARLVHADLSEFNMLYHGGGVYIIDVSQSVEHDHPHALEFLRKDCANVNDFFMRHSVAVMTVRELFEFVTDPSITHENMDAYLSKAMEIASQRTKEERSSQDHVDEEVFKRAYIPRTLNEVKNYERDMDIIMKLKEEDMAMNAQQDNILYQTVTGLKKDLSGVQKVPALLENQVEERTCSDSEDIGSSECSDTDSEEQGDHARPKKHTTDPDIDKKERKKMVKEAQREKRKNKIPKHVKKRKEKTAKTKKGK

[27] = biological target: Phosphatidylinositol 3-kinase C2 domain-containing subunit gamma (Homo sapiens) (UniProt O75747); conditions: Compound concentration 1000.0 nM
[28] = biological target: Ephrin type-A receptor 2 (Homo sapiens) (UniProt P29317); conditions: Compound concentration 1000.0 nM
[29] = biological target: Serine/threonine-protein kinase Nek5 (Homo sapiens) (UniProt Q6P3R8); conditions: Compound concentration 1000.0 nM
[30] = biological target: Ribosomal protein S6 kinase alpha-1 (Homo sapiens) (UniProt Q15418); conditions: Compound concentration 1000.0 nM
Sequence of Ribosomal protein S6 kinase alpha-1 (Homo sapiens) (Q15418 whole entry): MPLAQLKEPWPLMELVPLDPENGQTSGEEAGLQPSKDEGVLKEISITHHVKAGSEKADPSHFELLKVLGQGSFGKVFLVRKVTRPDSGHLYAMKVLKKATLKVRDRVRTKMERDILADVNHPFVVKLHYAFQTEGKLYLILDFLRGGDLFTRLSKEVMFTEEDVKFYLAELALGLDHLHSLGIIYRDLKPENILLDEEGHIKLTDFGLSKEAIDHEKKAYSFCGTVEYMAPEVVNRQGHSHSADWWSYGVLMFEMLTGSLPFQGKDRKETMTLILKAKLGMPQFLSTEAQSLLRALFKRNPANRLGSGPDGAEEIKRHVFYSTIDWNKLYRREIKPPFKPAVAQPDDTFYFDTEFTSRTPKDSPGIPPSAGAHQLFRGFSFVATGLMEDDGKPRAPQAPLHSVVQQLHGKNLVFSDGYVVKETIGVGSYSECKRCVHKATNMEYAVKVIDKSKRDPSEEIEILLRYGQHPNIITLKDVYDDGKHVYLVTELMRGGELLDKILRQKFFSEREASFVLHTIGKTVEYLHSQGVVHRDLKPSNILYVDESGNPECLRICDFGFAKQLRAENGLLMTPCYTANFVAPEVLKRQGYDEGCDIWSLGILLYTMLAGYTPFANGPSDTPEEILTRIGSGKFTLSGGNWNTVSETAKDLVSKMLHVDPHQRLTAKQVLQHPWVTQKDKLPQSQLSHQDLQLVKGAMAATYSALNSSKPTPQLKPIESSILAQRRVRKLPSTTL

[31] = biological target: Cyclin-dependent kinase 2 (Homo sapiens) (UniProt P24941); conditions: Compound concentration 1000.0 nM
[32] = biological target: 5-hydroxytryptamine receptor 3A (Homo sapiens) (UniProt P46098); conditions: Compound concentration 10.0 uM
[33] = biological target: Phosphatidylinositol 4-phosphate 3-kinase C2 domain-containing subunit beta (Homo sapiens) (UniProt O00750); conditions: Compound concentration 1000.0 nM
[34] = biological target: Ribosomal protein S6 kinase alpha-4 (Homo sapiens) (UniProt O75676); conditions: Compound concentration 1000.0 nM
[35] = biological target: Serine/threonine-protein kinase NIM1 (Homo sapiens) (UniProt Q8IY84); conditions: Compound concentration 1000.0 nM
[36] = biological target: Atypical kinase COQ8B, mitochondrial (Homo sapiens) (UniProt Q96D53); conditions: Compound concentration 1000.0 nM
Sequence of Atypical kinase COQ8B, mitochondrial (Homo sapiens) (Q96D53 whole entry): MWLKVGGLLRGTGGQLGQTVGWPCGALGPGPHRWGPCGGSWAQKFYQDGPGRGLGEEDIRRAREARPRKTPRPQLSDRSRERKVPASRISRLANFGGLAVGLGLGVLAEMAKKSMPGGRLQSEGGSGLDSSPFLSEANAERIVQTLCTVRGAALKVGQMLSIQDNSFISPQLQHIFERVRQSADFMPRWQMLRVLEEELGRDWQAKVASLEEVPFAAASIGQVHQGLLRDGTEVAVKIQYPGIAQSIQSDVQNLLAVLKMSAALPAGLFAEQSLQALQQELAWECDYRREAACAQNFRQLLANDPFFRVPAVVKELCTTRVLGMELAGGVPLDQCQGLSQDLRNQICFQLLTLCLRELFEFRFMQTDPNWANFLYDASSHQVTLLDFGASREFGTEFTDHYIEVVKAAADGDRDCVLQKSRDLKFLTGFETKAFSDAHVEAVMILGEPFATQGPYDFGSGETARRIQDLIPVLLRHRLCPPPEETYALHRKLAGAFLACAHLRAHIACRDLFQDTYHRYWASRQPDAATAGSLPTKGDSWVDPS

[37] = biological target: 5-hydroxytryptamine receptor 1E (Homo sapiens) (UniProt P28566); conditions: Compound concentration 10.0 uM
[38] = biological target: Tyrosine-protein kinase FRK (Homo sapiens) (UniProt P42685); conditions: Compound concentration 1000.0 nM
[39] = biological target: Serine/threonine-protein kinase ICK (Homo sapiens) (UniProt Q9UPZ9); conditions: Compound concentration 1000.0 nM
[40] = biological target: Mast/stem cell growth factor receptor Kit (Homo sapiens) (UniProt P10721); conditions: Compound concentration 1000.0 nM
[41] = biological target: Cyclin-G-associated kinase (Homo sapiens) (UniProt O14976); conditions: Compound concentration 1000.0 nM
Sequence of Cyclin-G-associated kinase (Homo sapiens) (O14976 whole entry): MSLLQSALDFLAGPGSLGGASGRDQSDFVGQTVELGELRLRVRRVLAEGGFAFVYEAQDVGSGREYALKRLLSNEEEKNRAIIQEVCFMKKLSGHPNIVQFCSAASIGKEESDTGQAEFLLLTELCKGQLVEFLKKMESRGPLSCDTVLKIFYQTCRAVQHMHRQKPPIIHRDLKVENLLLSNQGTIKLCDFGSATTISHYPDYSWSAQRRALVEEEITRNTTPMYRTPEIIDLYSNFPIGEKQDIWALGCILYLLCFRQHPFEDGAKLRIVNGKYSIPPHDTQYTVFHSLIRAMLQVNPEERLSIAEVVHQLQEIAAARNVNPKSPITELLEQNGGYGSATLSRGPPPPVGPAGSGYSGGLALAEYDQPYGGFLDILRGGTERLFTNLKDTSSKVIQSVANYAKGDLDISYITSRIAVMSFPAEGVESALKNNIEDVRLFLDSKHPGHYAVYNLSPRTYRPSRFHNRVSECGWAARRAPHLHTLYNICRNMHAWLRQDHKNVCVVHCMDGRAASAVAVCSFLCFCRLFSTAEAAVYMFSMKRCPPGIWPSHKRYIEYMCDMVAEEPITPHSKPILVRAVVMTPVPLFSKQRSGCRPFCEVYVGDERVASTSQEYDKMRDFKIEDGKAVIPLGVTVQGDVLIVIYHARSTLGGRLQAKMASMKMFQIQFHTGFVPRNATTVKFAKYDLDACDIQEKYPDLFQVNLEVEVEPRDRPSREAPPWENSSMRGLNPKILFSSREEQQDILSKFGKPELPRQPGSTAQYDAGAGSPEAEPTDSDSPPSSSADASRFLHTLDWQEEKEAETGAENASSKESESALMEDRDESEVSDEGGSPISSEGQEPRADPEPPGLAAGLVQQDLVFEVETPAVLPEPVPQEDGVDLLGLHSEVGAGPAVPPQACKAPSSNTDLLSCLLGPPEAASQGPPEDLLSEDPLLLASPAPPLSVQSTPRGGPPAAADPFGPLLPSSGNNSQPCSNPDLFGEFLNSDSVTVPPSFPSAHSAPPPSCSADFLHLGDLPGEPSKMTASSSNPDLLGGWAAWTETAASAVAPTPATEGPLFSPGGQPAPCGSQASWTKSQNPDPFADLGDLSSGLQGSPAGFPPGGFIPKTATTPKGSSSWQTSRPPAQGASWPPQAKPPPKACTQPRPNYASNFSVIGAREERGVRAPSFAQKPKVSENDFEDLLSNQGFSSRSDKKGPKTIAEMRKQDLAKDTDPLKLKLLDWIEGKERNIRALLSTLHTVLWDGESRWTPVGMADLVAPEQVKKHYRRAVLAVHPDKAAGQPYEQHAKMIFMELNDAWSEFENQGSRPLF

[42] = biological target: ALK tyrosine kinase receptor (Homo sapiens) (UniProt Q9UM73); conditions: Compound concentration 1000.0 nM
[43] = biological target: AP2-associated protein kinase 1 (Homo sapiens) (UniProt Q2M2I8); conditions: Compound concentration 1000.0 nM
Sequence of AP2-associated protein kinase 1 (Homo sapiens) (Q2M2I8 whole entry, looked up): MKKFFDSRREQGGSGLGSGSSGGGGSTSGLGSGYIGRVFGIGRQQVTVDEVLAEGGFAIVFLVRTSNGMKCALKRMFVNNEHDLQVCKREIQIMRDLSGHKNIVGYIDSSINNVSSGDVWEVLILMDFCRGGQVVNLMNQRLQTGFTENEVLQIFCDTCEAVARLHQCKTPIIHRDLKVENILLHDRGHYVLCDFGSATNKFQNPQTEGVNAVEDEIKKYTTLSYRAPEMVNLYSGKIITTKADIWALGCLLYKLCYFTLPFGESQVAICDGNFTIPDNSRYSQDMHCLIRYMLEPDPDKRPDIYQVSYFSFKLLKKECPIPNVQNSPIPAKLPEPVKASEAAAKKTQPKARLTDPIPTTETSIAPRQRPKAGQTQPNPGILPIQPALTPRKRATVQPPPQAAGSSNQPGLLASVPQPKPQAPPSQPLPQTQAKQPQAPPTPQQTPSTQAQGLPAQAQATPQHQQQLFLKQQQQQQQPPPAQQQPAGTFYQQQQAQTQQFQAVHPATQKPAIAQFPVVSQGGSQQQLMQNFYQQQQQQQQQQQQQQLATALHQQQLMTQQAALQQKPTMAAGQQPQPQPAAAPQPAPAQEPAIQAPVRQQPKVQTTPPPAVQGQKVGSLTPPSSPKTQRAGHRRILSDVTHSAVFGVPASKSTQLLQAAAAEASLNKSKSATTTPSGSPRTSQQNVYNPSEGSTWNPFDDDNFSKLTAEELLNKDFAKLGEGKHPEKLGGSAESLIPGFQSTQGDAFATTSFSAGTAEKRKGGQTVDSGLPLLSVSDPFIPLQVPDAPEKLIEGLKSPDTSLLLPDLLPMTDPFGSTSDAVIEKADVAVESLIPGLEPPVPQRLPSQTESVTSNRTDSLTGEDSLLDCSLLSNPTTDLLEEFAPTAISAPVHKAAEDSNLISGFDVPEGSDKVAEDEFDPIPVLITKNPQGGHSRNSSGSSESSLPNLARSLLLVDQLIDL

Structure (SMILES): O=C(Nc1ccc(Oc2ccc(F)cc2)cc1)N1CCc2ncccc2[C@H]1c1ccc(F)cc1 [BAY-897]
- residual activity [1]: 68%
- residual activity [2]: 94%
- residual activity [3]: 89%
- residual activity [4]: 97%
- residual activity [5]: 99%
- residual activity [6]: 100%
- residual activity [7]: 85%
- residual activity [8]: 98%
- residual activity [9]: 76%
- residual activity [10]: 100%
- residual activity [11]: 95%
- residual activity [12]: 84%
- residual activity [13]: 100%
- residual activity [14]: 100%
- residual activity [15]: 93%
- residual activity [16]: 92%
- residual activity [17]: 100%
- residual activity [18]: 73%
- residual activity [19]: 100%
- residual activity [20]: 93%
- residual activity [21]: 97%
- residual activity [22]: 83%
- inhibition [23]: 26.9%
- inhibition [24]: 52.4%
- residual activity [25]: 100%
- residual activity [26]: 100%
- residual activity [27]: 100%
- residual activity [28]: 100%
- residual activity [29]: 96%
- residual activity [30]: 92%
- residual activity [31]: 90%
- inhibition [32]: 4.7%
- residual activity [33]: 96%
- residual activity [34]: 73%
- residual activity [35]: 80%
- residual activity [36]: 92%
- inhibition [37]: 1.61%
- residual activity [38]: 93%
- residual activity [39]: 76%
- residual activity [40]: 91%
- residual activity [41]: 89%
- residual activity [42]: 100%
- residual activity [43]: 95%

Structure (SMILES): O=C(Nc1cnc(Oc2ccc(F)cc2)nc1)N1CCc2ncccc2[C@@H]1c1ccc(F)cc1 [BAY-899]
- residual activity [1]: 75%
- residual activity [2]: 96%
- residual activity [3]: 100%
- residual activity [4]: 85%
- residual activity [5]: 91%
- residual activity [6]: 94%
- residual activity [7]: 92%
- residual activity [8]: 92%
- residual activity [9]: 82%
- residual activity [10]: 79%
- residual activity [11]: 82%
- residual activity [12]: 81%
- residual activity [13]: 95%
- residual activity [14]: 100%
- residual activity [15]: 76%
- residual activity [16]: 100%
- residual activity [17]: 100%
- residual activity [18]: 63%
- residual activity [19]: 94%
- residual activity [20]: 77%
- residual activity [21]: 100%
- residual activity [22]: 85%
- inhibition [23]: 19.4%
- inhibition [24]: 37.6%
- residual activity [25]: 91%
- residual activity [26]: 89%
- residual activity [27]: 97%
- residual activity [28]: 99%
- residual activity [29]: 90%
- residual activity [30]: 76%
- residual activity [31]: 100%
- inhibition [32]: 45.8%
- residual activity [33]: 95%
- residual activity [34]: 89%
- residual activity [35]: 90%
- residual activity [36]: 100%
- inhibition [37]: -8.08%
- residual activity [38]: 98%
- residual activity [39]: 92%
- residual activity [40]: 81%
- residual activity [41]: 94%
- residual activity [42]: 99%
- residual activity [43]: 91%
